US20120328569A1, “INHIBITORS OF HEPATITIS C VIRUS NS5B POLYMERASE” (priority 2010, published 2012)

tested on: HCV genotype 1b replicon; assay: HCV replicon assay, cell ELISA with antibody to replicon-encoded NS3/4A (genotype 1b replicon); assay type: cell-based, hepatitis C virus; details: Hepatitis C virus, 96 h, read-out: 1b IC50(nM), HCV genotype 1b replicon; 96 hours incubation; NS3/4A cell ELISA
How it was run: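 Replicon-harbouring cells carrying neomycin phosphotransferase were incubated 96 h with a compound dilution series without G418. Replication was quantified indirectly by a cell ELISA detecting replicon-encoded NS3/4A. IC50 values were calculated relative to DMSO control with a four-parameter fit.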

With `CNC(=O)c1c(-c2ccc(F)cc2)oc2cc(N(CC3(C)COC3)S(C)(=O)=O)c(-c3cccc(-c4nc5ncccc5o4)c3)cc12` [Example 723] as the compound, how does the IC50 read?
The IC50 was 2.31 nM.

`CNC(=O)c1c(-c2ccc(F)cc2)oc2cc(N(CC3CC3)S(C)(=O)=O)c(-c3ccc(OC)c(-c4nc5cc(F)cc(F)c5o4)c3)cc12` [Example 706] was tested. Which IC50 did it give?
The IC50 was 16.7 nM.

`CNC(=O)c1c(-c2ccc(F)cc2)oc2cc(N(C)S(C)(=O)=O)c(-c3ccc(OC)c(-c4cc5ccc(F)cc5s4)c3)cc12` [Example 687] was tested. Which IC50 did it give?
The IC50 was 27.3 nM.

`CNC(=O)c1cc(-c2nc3c(F)cccc3o2)cc(-c2cc3c(C(=O)NC)c(-c4ccc(F)cc4)oc3cc2N(C)S(C)(=O)=O)c1` [Example 654] was tested. Which IC50 did it give?
The IC50 was 3.65 nM.

For `CNC(=O)c1c(-c2ccc(F)cc2)oc2cc(N(C)S(C)(=O)=O)c(-c3cc(-c4nc5ncccc5o4)ccn3)cc12` [Example 509], which IC50 is on record?
Its IC50 is 3 nM.

Which IC50 does the source give for `CNC(=O)c1c(-c2ccc(F)cc2)oc2cc(N(C3COC3)S(C)(=O)=O)c(-c3ccc(OC)c(-c4nc5c(C#N)cccc5o4)c3)cc12` [Example 722] here?
Its IC50 is 3.03 nM.

same assay, conditions: Hepatitis C virus, 96 h, read-out: Replicon 1b IC50 (nM), HCV genotype 1b replicon cells, 96 hours incubation, NS3/4A ELISA readout

With `CNC(=O)c1c(-c2ccc(F)cc2)oc2cc(N(CCCNC(=O)OC(C)(C)C)S(C)(=O)=O)c(-c3cccc(-c4nc5ncccc5o4)c3)cc12` [Compound 395] as the compound, how does the IC50 read?
Its IC50 is 8.2 nM.

`CNC(=O)c1c(-c2ccc(F)cc2)oc2cc(N(C)S(C)(=O)=O)c(-c3ccc(OC(C)C)cc3)cc12` [Example 109, 2-(4-fluorophenyl)-N-methyl-6-[methyl(methylsulfonyl)amino]-5-[4-(propan-2-yloxy)phenyl]-1-benzofuran-3-carboxamide] was tested. Which IC50 did it give?
Its IC50 is 216 nM.

How did the IC50 turn out when `CNC(=O)c1c(-c2ccc(F)cc2)oc2cc(N(C)S(C)(=O)=O)c(-c3cccc(-c4nc5cc(Cl)ccc5s4)c3)cc12` [Example 148, 5-[3-(5-chloro-1,3-benzothiazol-2-yl)phenyl]-2-(4-fluorophenyl)-N-methyl-6-[methyl (methylsulfonyl)amino]-1-benzofuran-3-carboxamide] was run?
Its IC50 is 9 nM.

`CNC(=O)c1c(-c2ccc(F)cc2)oc2cc(N(C)S(C)(=O)=O)c(-c3ccc(F)c(-c4nc5nccnc5[nH]4)c3)cc12` [Example 337] was tested. Which IC50 did it give?
Its IC50 is 7.8 nM.

With `CNC(=O)c1c(-c2ccc(F)cc2)oc2cc(N(C)S(C)(=O)=O)c(-c3ccc(CNS(C)(=O)=O)cc3)cc12` [Example 104] as the compound, how does the IC50 read?
Its IC50 is 164 nM.

Which IC50 does the source give for `CNC(=O)c1c(-c2ccc(F)cc2)oc2cc(N(C)S(C)(=O)=O)c(-c3cccc(-c4nc5ccc(=O)[nH]c5s4)c3)cc12` [Example 252] here?
The IC50 was 78.2 nM.

With `CNC(=O)c1c(-c2ccc(F)cc2)oc2cc(N(C)S(C)(=O)=O)c(-c3cccc(-c4nc5ncc(F)cc5o4)c3)cc12` [Example 201] as the compound, how does the IC50 read?
The IC50 was 1.7 nM.

How did the IC50 turn out when `CNC(=O)c1c(-c2ccc(F)cc2)oc2cc(N(C)S(C)(=O)=O)c(-c3ccc(F)c(-c4nc5ncccc5o4)c3)cc12` [Example 200] was run?
Its IC50 is 1.6 nM.

`CNC(=O)c1c(-c2ccc(F)cc2)oc2cc(N(CCCC#N)S(C)(=O)=O)c(-c3cccc(-c4nc5ncccc5o4)c3)cc12` [Compound 393] was tested. Which IC50 did it give?
Its IC50 is 1.2 nM.

`CNC(=O)c1c(-c2ccc(F)cc2)oc2cc(N(C)S(C)(=O)=O)c(-c3cc(F)cc(-c4nc5cccc(C)c5o4)c3)cc12` [Example 167] was tested. Which IC50 did it give?
Its IC50 is 10.4 nM.

Which IC50 does the source give for `CNC(=O)c1c(-c2ccc(F)cc2)oc2cc(N(CCC(C)C)S(C)(=O)=O)c(-c3ccccc3)cc12` [Example 18, 2-(4-fluorophenyl)-N-methyl-6-[(3-methylbutyl) (methylsulfonyl)amino]-5-phenyl-1-benzofuran-3-carboxamide] here?
Its IC50 is 41 nM.

`CNC(=O)c1c(-c2ccc(F)cc2)oc2cc(N(CCCN)S(C)(=O)=O)c(-c3cccc(-c4nc5ncccc5o4)c3)cc12` [Compound 396] was tested. Which IC50 did it give?
The IC50 was 18.2 nM.

With `C=CCN(c1cc2oc(-c3ccc(F)cc3)c(C(=O)NC)c2cc1-c1ccccc1)S(C)(=O)=O` [Example 35, 2-(4-fluorophenyl)-N-methyl-6-[(methylsulfonyl) (prop-2-en-1-yl)amino]-5-phenyl-1-benzofuran-3-carboxamide] as the compound, how does the IC50 read?
The IC50 was 7 nM.

same assay, conditions: read-out: 1b IC50; HCV genotype 1b replicon; 96 hours incubation; NS3/4A cell ELISA

`CNC(=O)c1c(-c2ccc(F)cc2)oc2cc(N(CCF)S(C)(=O)=O)c(-c3cccc(-c4nc5ncccc5o4)c3)cc12` [Example 581] was tested. Which IC50 did it give?
Its IC50 is 0.5 nM.
